Read-outs that look alike come from different tables or passages of the source.
Legend:
[1] = tested on: apomorphine-induced emesis; test: apomorphine test in dogs (APO-dog); type: in vivo, beagle dog; conditions: Canis lupus familiaris, sc, read-out: ED50 (APO)--dog
Text: (§1) The activity of the subject compounds as […] is evidenced by the experimental data obtained in at least one of two different test procedures, viz., the combined apomorphine-, tryptamine- and norepinephrine tests in rats and the apomorphine test in dogs.
The apomorphine test in dogs (APO-dog).
The method used is described by P. A. J. Janssen and C. J. E. Niemegeers in Arzneim.-Forsch. (Drug Res.), 9, 765-767 (1959). […]
The table 1 gives the ED50 -values of a number of the compounds under consideration. As used herein, the ED50 value represents the dose which protects 50% of the animals from emesis.

[2] = tested on: norepinephrine-induced mortality; test: combined test in rats: norepinephrine (NOR); type: in vivo, rat (adult male Wistar rats); conditions: Rattus norvegicus, sc, 2 h; norepinephrine 1.25 mg/kg i.v. at 120 minutes; dose protecting 50% of animals
Method: as §1
(§2) The combined apomorphine (APO)-, tryptamine (TRY)- and norepinephrine (NOR) test in rats.
(§3) The experimental animals used in this test were adult male Wistar rats (weight 240±10 g). After an overnight fast, the animals were treated subcutaneously (1 ml/100 g) with an aqueous solution of the compound under investigation (time=zero) and put in isolated observation cages. Thirty minutes thereafter (time=30 minutes) 1.25 mg/kg of apomorphine hydrochloride (APO) was injected intravenously and the rats were observed over a 1 hour period for the presence or absence of the following apomorphine-induced phenomena; agitation and stereotypic chewing. At the end of this 1 hour period (time=90 minutes) the same animals were injected intravenously with 40 mg/kg of tryptamine (TRY) and the presence of the typical tryptamine-induced bilateral tonic seizures was noted. Two hours after pretreatment (time=120 minutes) finally, the same animals were challenged with 1.25 mg/kg intravenously of norephinephrine (NOR) and possible mortality was looked for up to 60 minutes later.
(§4) The table 1 gives the ED50 -value of a number of the compounds under consideration. As used herein, the ED50 -value represents the dose which protects 50% of the animals from apomorphine-, tryptamine- or norepinephrine-induced phenomena.

[3] = tested on: apomorphine-induced agitation and stereotypic chewing; test: combined test in rats: apomorphine (APO); type: in vivo, rat (adult male Wistar rats); conditions: Rattus norvegicus, sc, 0.5 h, read-out: ED50 (APO)--rat
Method: as §1, §2, §3, §4

[4] = tested on: tryptamine-induced bilateral tonic seizures; test: combined test in rats: tryptamine (TRY); type: in vivo, rat (adult male Wistar rats); conditions: Rattus norvegicus, sc, 1.5 h, read-out: ED50 (TRY)--rat
Method: as §1, §2, §3, §4

[5] = duration 1 h, apomorphine 0.31 mg/kg s.c., dose protecting 50% from emesis
[6] = duration 4 h, apomorphine 0.31 mg/kg s.c., dose protecting 50% from emesis
[7] = s.c., apomorphine 1.25 mg/kg i.v. 30 minutes after treatment, dose protecting 50% of animals
[8] = s.c., tryptamine 40 mg/kg i.v. at 90 minutes, dose protecting 50% of animals

Compound | ED50 [1, 5] [mg/kg] | ED50 [1, 6] [mg/kg] | ED50 [2] [mg/kg] | ED50 [3, 7] [mg/kg] | ED50 [4, 8] [mg/kg] | ED50 ([1]; 1 h) [mg/kg] | ED50 ([1]; 2 h) [mg/kg] | ED50 ([1]; 4 h) [mg/kg] | ED50 ([1]; 8 h) [mg/kg] | ED50 ([1]; 16 h) [mg/kg] | ED50 [3] [mg/kg] | ED50 [4] [mg/kg] | ED50 ([1]; duration 16 h, apomorphine 0.31 mg/kg s.c., dose protecting 50% from emesis) [mg/kg]
Cc1nc2n(c(=O)c1CCN1CCC(c3noc4cc(F)ccc34)CC1)CCS2 [Compound 14, 6-[2-[4-(6-fluoro-1,2-benzisoxazol-3-yl)-1-piperidinyl]ethyl]-2,3-dihydro-7-methyl-5H-thiazolo[3,2-a]pyrimidin-5-one] | 0.004 | 0.004 | 0.31 | 0.02 | 0.005 |  |  |  |  |  |  |  | 
Cc1nc2n(c(=O)c1CCN1CCC(c3noc4cc(F)ccc34)CC1)CCCS2 [Compound 15, 7-[2-[4-(6-fluoro-1,2-benzisoxazol-3-yl)-1-piperidinyl]ethyl]-3,4-dihydro-8-methyl-2H,6H-pyrimido[2,1-b][1,3]thiazin-6-one] | 0.015 | 0.06 | 0.31 | 0.08 | 0.01 |  |  |  |  |  |  |  | 
Cc1nc2n(c(=O)c1CCN1CCC(c3noc4cc(F)ccc34)CC1)CCCC2 [Compound 1, 3-[2-[4-(6-fluoro-1,2-benzisoxazol-3-yl)-1-piperidinyl]ethyl]-6,7,8,9-tetrahydro-2-methyl-4H-pyrido[1,2-a]pyrimidin-4-one] |  |  | 0.16 |  |  | 0.008 | 0.005 | 0.015 | 0.018 | 0.02 | 0.08 | 0.08 | 
Cc1nc2sccn2c(=O)c1CCN1CCC(c2noc3cc(F)ccc23)CC1 [Compound 2, 6-[2-[4-(6-fluoro-1,2-benzisoxazol-3-yl)-1-piperidinyl]ethyl]-7-methyl-5H-thiazolo[3,2-a]pyrimidin-5-one] | 0.004 | 0.008 | 0.31 | 0.02 | 0.005 |  |  |  |  |  |  |  | 0.16
Cc1nc2ccccn2c(=O)c1CCN1CCC(c2noc3cc(F)ccc23)CC1 [Compound 11, 3-[2-[4-(6-fluoro-1,2-benzisoxazol-3-yl)-1-piperidinyl]ethyl]-2-methyl-4H-pyrido[1,2-a]pyrimidin-4-one] | 0.015 | 0.03 | 0.16 | 0.02 | 0.01 |  |  |  |  |  |  |  | 
Cc1nc2scc(C)n2c(=O)c1CCN1CCC(c2noc3cc(F)ccc23)CC1 [Compound 13, 6-[2-[4-(6-fluoro-1,2-benzisoxazol-3-yl)-1-piperidinyl]ethyl]-3,7-dimethyl-5H-thiazolo[3,2-a]pyrimidin-5-one] | 0.015 | 0.06 | 0.08 | 0.02 | 0.02 |  |  |  |  |  |  |  | 
